Laboratory results reported in patent publication US11485735B2, “Selective CDK4/6 inhibitor and preparation thereof” (Wuxi Shuangliang Biotechnology Co., Ltd., priority 2019, dated 2022).
“Also recorded” adds a separate entry of the source.

Columns and labels:
[1] = target: T1, CDK6/CyclinD3 (Homo sapiens, UniProt Q00534); test: In-vitro kinase inhibitory activity, CDK6/CyclinD3 (Caliper EZ Reader II mobility shift); format: biochemical; details: CDK6/CyclinD3 20 nM, ATP 2 mM, Peptide 1 μM, 27° C., 120 min; read-out: IC50 (half maximal inhibitory concentration, nM) CDK6
T1 construct: purchased Wuxi Biortus Biosciences Co. Ltd
T1 sequence (Q00534 whole entry, species assumed): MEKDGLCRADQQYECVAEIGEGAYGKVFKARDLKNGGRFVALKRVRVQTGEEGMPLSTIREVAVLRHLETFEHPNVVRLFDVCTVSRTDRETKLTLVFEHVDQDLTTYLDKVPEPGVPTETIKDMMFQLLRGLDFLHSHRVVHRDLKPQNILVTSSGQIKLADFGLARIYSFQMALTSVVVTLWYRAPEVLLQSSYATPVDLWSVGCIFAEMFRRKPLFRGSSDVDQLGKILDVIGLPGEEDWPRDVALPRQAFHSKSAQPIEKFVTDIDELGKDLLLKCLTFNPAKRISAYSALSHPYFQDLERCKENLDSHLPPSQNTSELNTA
T1 sequence (P30281 whole entry partner, species assumed): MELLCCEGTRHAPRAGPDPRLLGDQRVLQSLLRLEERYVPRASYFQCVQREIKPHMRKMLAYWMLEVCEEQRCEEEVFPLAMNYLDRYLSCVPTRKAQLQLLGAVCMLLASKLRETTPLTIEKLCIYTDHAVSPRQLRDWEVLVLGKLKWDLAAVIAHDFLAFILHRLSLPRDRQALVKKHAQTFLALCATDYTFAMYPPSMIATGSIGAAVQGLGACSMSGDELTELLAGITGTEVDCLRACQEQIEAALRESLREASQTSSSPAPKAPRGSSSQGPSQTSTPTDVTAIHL
Outline: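 Compound was preincubated 10 min with CDK6/CyclinD3, then peptide substrate plus ATP was added and the reaction ran 120 min at 27° C. before EDTA stop. Substrate and phosphorylated product were separated by microfluidic mobility shift, at least two replicates. IC50 from non-linear regression of dose-response curves.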

[2] = target: T2, CRBN (Homo sapiens, UniProt Q96SW2); test: In-vitro inhibition assay of CRBN activity (fluorescence polarization, Cy5-Thalidomide); format: binding; details: Cy5-Thalidomide 10 nM, CRBN 180 nM, 27° C., 60 min
T2 construct: purchased Wuxi Biortus Biosciences Co. Ltd
T2 sequence (Q96SW2 whole entry, species assumed): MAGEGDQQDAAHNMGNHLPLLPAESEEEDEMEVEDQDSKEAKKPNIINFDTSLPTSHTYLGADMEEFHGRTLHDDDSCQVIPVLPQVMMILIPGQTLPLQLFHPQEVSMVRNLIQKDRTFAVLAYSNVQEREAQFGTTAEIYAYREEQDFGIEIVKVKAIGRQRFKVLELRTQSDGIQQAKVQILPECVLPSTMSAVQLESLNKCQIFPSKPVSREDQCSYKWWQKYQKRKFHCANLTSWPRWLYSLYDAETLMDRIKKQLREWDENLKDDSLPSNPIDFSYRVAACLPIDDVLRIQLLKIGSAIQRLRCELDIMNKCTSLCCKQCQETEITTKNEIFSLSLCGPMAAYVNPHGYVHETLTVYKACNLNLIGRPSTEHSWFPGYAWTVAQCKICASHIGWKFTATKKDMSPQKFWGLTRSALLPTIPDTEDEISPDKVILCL
Description: The final volume for assay was 20 μL, and the reaction temperature was 27° C. CRBN was produced by Wuxi Biortus Biosciences Co. Ltd. The concentration of the kinase was determined by the optimization experiment, and the kinase was diluted with an assay buffer (50 mM Tris, pH 7.5, 100 mM NaCl, and 0.01% Pluronic acid) to obtain a corresponding kinase solution (2× concentration). The compound was dissolved in dimethyl sulfoxide (DMSO) to reach a concentration of 10 mM. […] 5 μL of the test compound solution was mixed with 5 μL of the substrate solution, and 10 μL of the kinase solution was added to the mixture. The mixture was incubated at 27° C. for 60 min. Each assay was conducted in at least two replicates. […].
The final concentrations of the reagents in the assay were as follows. […] The data of fluorescence polarization assay were read on TECAN infinite M1000. Data were calculated by using GraphPad Prism version 6.0, and IC50 values were obtained by adjusting the non-linear regression models of the dose response curves.

[3] = target: T3, CDK4/CyclinD3 (Homo sapiens, UniProt P11802); test: In-vitro kinase inhibitory activity, CDK4/CyclinD3 (Caliper EZ Reader II mobility shift); format: biochemical; details: CDK4/CyclinD3 20 nM, ATP 2 mM, Peptide 1 μM, 27° C., 180 min; read-out: IC50 (half maximal inhibitory concentration, nM) CDK4
T3 construct: purchased Wuxi Biortus Biosciences Co. Ltd
T3 sequence (P11802 whole entry, species assumed): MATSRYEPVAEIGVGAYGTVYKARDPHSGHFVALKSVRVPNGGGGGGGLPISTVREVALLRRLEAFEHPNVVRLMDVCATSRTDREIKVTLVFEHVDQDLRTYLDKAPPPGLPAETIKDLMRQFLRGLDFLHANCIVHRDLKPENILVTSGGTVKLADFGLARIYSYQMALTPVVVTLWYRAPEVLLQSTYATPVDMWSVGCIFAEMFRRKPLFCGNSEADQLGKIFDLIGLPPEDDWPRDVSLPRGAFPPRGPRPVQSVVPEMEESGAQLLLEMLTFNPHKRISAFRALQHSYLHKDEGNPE
T3 sequence (P30281 whole entry partner, species assumed): as the sequence (P30281 whole entry partner, species assumed) above
Outline: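 Compound was preincubated 10 min with CDK4/CyclinD3 in Tris pH 8.0 with 5 mM MgCl2, then peptide substrate and ATP were added for 180 min at 27 °C, and the reaction was stopped with EDTA. Substrate and product were separated by mobility shift. IC50 comes from non-linear dose-response fits, with at least two replicates.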

[4] = test system: human breast cancer MCF-7 cells; test: Growth inhibition of tumor cells cultured in vitro, CellTiter-Glo, MCF-7; format: cell-based; details: for IC50: MCF-7, 72 h, CellTiter-Glo; for inhibitory effect on human breast cancer MCF-7 cells (in words): summary of the table
Outline: (§1)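 Cells were seeded at 6000/well, COLO205 in RPMI-1640 with 10% FBS and MCF-7 in MEM with 10% FBS plus 0.01 mg/mL insulin, and grown 24 h before dosing. Compound dilutions in medium (10 to 0.0015 μM/L before addition, DMSO <0.1%) were tested in triplicate for 72 h at 37° C. IC50 was derived from CellTiter-Glo luminescence.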

[5] = test system: human colon cancer COLO205 cells; test: Growth inhibition of tumor cells cultured in vitro, CellTiter-Glo, COLO205; format: cell-based; details: for IC50: COLO205, 72 h, CellTiter-Glo; for inhibitory effect on human colon cancer COLO205 cells (in words): summary of the table
Outline: as §1

[6] = target: CDK2 (Homo sapiens, UniProt P24941); test: In-vitro kinase inhibitory activity, CDK2 (selectivity); format: biochemical; details: read-out: IC50 (half maximal inhibitory concentration, nM) CDK2
[7] = target: CDK9 (Homo sapiens, UniProt P50750); test: In-vitro kinase inhibitory activity, CDK9 (selectivity); format: biochemical; details: read-out: IC50 (half maximal inhibitory concentration, nM) CDK9
CDK9, sequence (P50750 whole entry, species assumed): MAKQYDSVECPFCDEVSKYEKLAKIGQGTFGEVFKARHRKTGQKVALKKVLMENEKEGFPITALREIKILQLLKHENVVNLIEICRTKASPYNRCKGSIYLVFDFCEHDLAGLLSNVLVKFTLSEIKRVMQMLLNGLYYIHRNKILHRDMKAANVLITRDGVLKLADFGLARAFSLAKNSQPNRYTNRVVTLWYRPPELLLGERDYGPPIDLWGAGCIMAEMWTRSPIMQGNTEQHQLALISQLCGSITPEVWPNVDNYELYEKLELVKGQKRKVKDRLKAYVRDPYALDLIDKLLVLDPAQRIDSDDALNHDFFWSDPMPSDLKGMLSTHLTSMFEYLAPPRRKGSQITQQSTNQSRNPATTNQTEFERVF
CDK9, sequence (O60563 whole entry partner, species assumed): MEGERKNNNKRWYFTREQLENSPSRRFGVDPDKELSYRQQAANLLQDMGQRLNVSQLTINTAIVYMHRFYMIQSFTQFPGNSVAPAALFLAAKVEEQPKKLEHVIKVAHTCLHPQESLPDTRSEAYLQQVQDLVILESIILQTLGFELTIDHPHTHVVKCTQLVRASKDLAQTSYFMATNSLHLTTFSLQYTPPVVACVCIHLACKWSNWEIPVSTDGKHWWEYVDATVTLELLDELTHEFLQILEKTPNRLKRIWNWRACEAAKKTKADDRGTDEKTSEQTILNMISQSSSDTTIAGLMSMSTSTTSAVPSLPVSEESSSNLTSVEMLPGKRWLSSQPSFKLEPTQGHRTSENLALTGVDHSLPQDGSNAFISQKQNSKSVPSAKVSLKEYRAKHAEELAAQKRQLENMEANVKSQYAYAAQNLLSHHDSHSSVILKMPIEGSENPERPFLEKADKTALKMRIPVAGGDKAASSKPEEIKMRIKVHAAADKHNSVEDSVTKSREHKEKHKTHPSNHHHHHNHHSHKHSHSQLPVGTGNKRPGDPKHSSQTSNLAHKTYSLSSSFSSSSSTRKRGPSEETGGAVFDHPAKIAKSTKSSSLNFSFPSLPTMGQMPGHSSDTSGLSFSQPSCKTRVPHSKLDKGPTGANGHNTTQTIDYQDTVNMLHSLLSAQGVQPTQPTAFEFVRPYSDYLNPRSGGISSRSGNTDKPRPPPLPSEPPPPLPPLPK

Compound | IC50 [1] [nM] | IC50 [2] [nM] | IC50 [3] [nM] | IC50 ([4]; Homo sapiens, MCF7, 72 h) [nM] | inhibitory effect on human breast cancer MCF-7 cells (in words) [4] | IC50 ([5]; Homo sapiens, COLO 205, 72 h) [nM] | inhibitory effect on human colon cancer COLO205 cells (in words) [5] | IC50 [6] [nM] | IC50 [7] [nM] | IC50 [4] [nM] | IC50 ([5]; dihydrochloride) [nM] | inhibitory effect on human colon cancer COLO205 cells (in words) ([5]; dihydrochloride)
CC(=O)c1c(C)c2cnc(Nc3ccc(N4CCN(CCN5CCC(CN6CCN(c7ccc8c(c7)CN(C7CCC(=O)NC7=O)C8=O)CC6)CC5)CC4)cn3)nc2n(C2CCCC2)c1=O.Cl.Cl.Cl (single isomer, unassigned) [Compound 4, 3-(5-(4-((1-(2-(4-(6-((6-acetyl-8-cyclopentyl-5-methyl-7-oxo-7,8-dihydropyrido[2,3-d]pyrimidin-2-yl)amino)pyridin-3-yl)piperazin-1-yl)ethyl)piperidin-4-yl)methyl)piperazin-1-yl)-1-oxoisoindolin-2-yl)piperidine-2,6-dione trihydrochloride] | 9.7 | 2080 | 10.7 | 50.5 | relatively good inhibitory effects | 69.2 | relatively good inhibitory effects | > 10000 | 8640 | – | – | –
CC(=O)c1c(C)c2cnc(Nc3ccc(N4CCN(CCN5CCN(c6ccc7c(c6)CN(C6CCC(=O)NC6=O)C7=O)CC5)CC4)cn3)nc2n(C2CCCC2)c1=O (single isomer, unassigned) [Compound 1, 3-(5-(4-(2-(4-(6-((6-acetyl-8-cyclopentyl-5-methyl-7-oxo-7,8-dihydropyrido[2,3-d]pyrimidin-2-yl)amino)pyridin-3-yl)piperazin-1-yl)ethyl)piperazin-1-yl)-1-oxoisoindolin-2-yl)piperidine-2,6-dione] | 21.3 | 3000 | 38.8 | > 10000 | – | 45.7 | relatively good inhibitory effects | > 10000 | 4180 | – | – | –
CC(=O)c1c(C)c2cnc(Nc3ccc(N4CCN(CCCCN5CCC(CN6CCN(c7ccc8c(c7)CN(C7CCC(=O)NC7=O)C8=O)CC6)CC5)CC4)cn3)nc2n(C2CCCC2)c1=O (stereo not drawn) [Compound 5, 3-(5-(4-((1-(4-(4-(6-((6-acetyl-8-cyclopentyl-5-methyl-7-oxo-7,8-dihydropyrido[2,3-d]pyrimidin-2-yl)amino)pyridin-3-yl)piperazin-1-yl)butyl)piperidin-4-yl)methyl)piperazin-1-yl)-1-oxoisoindolin-2-yl)piperidine-2,6-dione] | 6.6 | 5280 | 10 | 30.4 | relatively good inhibitory effects | 291 | – | 9910 | 5470 | – | – | –
CC(=O)c1c(C)c2cnc(Nc3ccc(N4CCN(CCN5CCN(c6ccc7c(c6)CN(C6CCC(=O)NC6=O)C7=O)CC5)CC4)cn3)nc2n(C2CCCC2)c1=O.Cl.Cl (single isomer, unassigned) [Compound 2, 3-(5-(4-(2-(4-(6-((6-acetyl-8-cyclopentyl-5-methyl-7-oxo-7,8-dihydropyrido[2,3-d]pyrimidin-2-yl)amino)pyridin-3-yl)piperazin-1-yl)ethyl)piperazin-1-yl)-1-oxoisoindolin-2-yl)piperidine-2,6-dione dihydrochloride] | 22 | 3000 | 36.8 | – | – | – | – | > 10000 | 8710 | > 10000 | 25.5 | relatively good inhibitory effects; also recorded: the best inhibitory effect
